Assay [1] concerns the target T1, AChE (EC 3.1.1.7) from electric eel (Electrophorus electricus, UniProt O42275).
T1 construct: purchased Sigma-Aldrich C3389
The assay can be described thus: biochemical.

The target of assay [2] is T2, BuChE (EC 3.1.1.8) from horse serum (Equus caballus, UniProt P81908).
T2 construct: purchased Sigma-Aldrich C0663; host or cells: equine serum
The assay can be described thus: biochemical. It is filed as biochemical. The following applies: BuChE from horse serum; mean ± SEM of three experiments.

The next assay deals with ICR mice. The assay can be described thus: Morris water maze test, scopolamine-induced cognitive impairment.

T1 sequence (O42275 24-633): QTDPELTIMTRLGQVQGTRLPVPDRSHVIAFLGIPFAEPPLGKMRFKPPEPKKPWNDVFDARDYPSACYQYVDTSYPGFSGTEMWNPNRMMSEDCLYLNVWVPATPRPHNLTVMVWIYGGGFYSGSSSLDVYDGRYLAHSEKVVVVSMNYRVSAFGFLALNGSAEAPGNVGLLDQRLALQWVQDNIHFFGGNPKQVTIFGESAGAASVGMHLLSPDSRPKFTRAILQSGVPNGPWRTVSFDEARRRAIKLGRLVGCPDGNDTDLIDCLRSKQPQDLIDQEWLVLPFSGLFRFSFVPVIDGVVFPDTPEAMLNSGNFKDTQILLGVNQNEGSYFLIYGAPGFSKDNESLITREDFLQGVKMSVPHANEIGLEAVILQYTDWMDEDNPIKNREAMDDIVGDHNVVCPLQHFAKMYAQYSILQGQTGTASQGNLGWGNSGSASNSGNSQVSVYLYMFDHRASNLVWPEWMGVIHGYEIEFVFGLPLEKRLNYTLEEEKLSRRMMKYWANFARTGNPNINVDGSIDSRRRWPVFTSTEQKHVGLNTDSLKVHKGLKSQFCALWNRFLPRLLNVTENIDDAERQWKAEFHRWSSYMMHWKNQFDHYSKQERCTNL
T2 sequence (P81908 whole entry): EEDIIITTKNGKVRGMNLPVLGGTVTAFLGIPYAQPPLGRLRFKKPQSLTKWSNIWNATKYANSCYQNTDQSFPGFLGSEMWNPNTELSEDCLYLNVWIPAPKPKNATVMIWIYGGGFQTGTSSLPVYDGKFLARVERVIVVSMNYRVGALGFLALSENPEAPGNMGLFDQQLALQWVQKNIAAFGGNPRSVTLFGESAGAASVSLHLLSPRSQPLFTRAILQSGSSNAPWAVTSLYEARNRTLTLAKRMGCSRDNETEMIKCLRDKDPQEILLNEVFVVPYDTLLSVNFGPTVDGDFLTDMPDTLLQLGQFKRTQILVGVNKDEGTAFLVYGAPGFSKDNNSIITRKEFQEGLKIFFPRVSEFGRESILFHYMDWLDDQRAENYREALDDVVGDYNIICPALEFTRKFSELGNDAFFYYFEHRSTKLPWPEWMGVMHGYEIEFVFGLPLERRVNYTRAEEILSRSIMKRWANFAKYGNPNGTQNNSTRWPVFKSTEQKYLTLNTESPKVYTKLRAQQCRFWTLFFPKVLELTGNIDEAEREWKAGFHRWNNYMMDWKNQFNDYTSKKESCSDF

For the compound `O=C(/C=C/c1ccc([N+](=O)[O-])cc1)NCCCCCCNc1c2c(nc3ccccc13)CCCC2` [Compound 19, (E)-3-(4-nitrophenyl)-N-(6-((1,2,3,4-tetrahydroacridin-9-yl)amino)hexyl)acrylamide], the half-inhibitory concentration (IC50) (as a rule, the point on the concentration scale where inhibition reaches its midpoint) in assay [1] (AChE from electric eel, mean ± SEM of three experiments) stood at 2.7 ± 0.4 nM; in assay [2] it was 6.5 ± 0.6 nM. The “Selectivity index (SI) = BuChE IC50/AChE IC50” value in assay [1] (eqBuChE IC50 / eeAChE IC50) turned out to be 2.4. Besides, the “Latency to target (second), Day 5” value in the assay with ICR mice (learning and training, Day 5, oral, plus scopolamine, ICR mice) came out at 54.1 ± 8.9 s. The “Latency to target (second), Day 6” value in the assay with ICR mice (learning and training, Day 6, oral, plus scopolamine, ICR mice) was 36.5 ± 4.2 s. Further, the “Latency to target (second), Day 7” value in the assay on ICR mice (learning and training, Day 7, oral, plus scopolamine, ICR mice) is 36.6 ± 4.3 s. Moreover, in the assay on ICR mice (learning and training, Day 8, oral, plus scopolamine, ICR mice), the “Latency to target (second), Day 8” value was 35.2 ± 4.7 s. Besides, in the assay on ICR mice (learning and training, Day 9, oral, plus scopolamine, ICR mice), the “Latency to target (second), Day 9” value came to 26.1 ± 1.4 s. The “Latency to Target” value in the assay on ICR mice (probe trial, oral administration plus scopolamine (1 mg/kg ip), ICR mice, mean ± SEM, n = 6) is recorded as 25.0 ± 1.5 s. Further, the “trajectory in the Morris water maze test” value with ICR mice (scopolamine-impaired ICR mice, compared to tacrine group) was “much shortened distances as compared to tacrine group”.

The values are drawn from paper PMC7011792 (Journal of Enzyme Inhibition and Medicinal Chemistry, 2017).
